According to ChEMBL document CHEMBL1158007, “Steroidal glycosides from the bulbs of Allium jesdianum” (J Nat Prod, 1999):

Assays:
Format in all cases: functional
[1] = Growth inhibition of human SK MEL28 cells after 72 hrs by MTT assay; settings: SK-MEL-28, 72 h
NCI-H23 = assay: Growth inhibition of human NCI-H23 cells after 72 hrs by MTT assay; settings: NCI-H23, 72 h
MDA-N = assay: Growth inhibition of human MDA-N cells after 72 hrs by MTT assay
SK-MEL-5 = assay: Growth inhibition of human SK-MEL-5 cells after 72 hrs by MTT assay; settings: SK-MEL-5, 72 h
HL-60(TB) = assay: Growth inhibition of human HL-60(TB) cells after 72 hrs by MTT assay; settings: HL-60, 72 h
K562 = assay: Growth inhibition of human K-562 cells after 72 hrs by MTT assay; settings: K562, 72 h, read-out: LC50 (the source's name)
CAKI-1 = assay: Growth inhibition of human Caki-1 cells after 72 hrs by MTT assay; settings: CAKI-1, 72 h
MDA-MB-231 = assay: Growth inhibition of human MDA-MB-231cells after 72 hrs by MTT assay; settings: MDA-MB-231, 72 h
DU-145 = assay: Growth inhibition of human DU-145 cells after 72 hrs by MTT assay; settings: DU-145, 72 h
[2] = Growth inhibition of human HCT 116 cells after 72 hrs by MTT assay; settings: HCT-116, 72 h
M14 = assay: Growth inhibition of human M14 cells after 72 hrs by MTT assay; settings: M14, 72 h
MDA-MB-435 = assay: Growth inhibition of human MDA-MB-435 cells after 72 hrs by MTT assay; settings: MDA-MB-435, 72 h
OVCAR-3 = assay: Growth inhibition of human OVCAR-3 cells after 72 hrs by MTT assay; settings: OVCAR-3, 72 h
SK-OV-3 = assay: Growth inhibition of human SKOV3 cells after 72 hrs by MTT assay; settings: SK-OV-3, 72 h
NCI-H460 = assay: Growth inhibition of human NCI-H460 cells after 72 hrs by MTT assay; settings: NCI-H460, 72 h
OVCAR-8 = assay: Growth inhibition of human OVCAR8 cells after 72 hrs by MTT assay; settings: OVCAR-8, 72 h
SNB-75 = assay: Growth inhibition of human SNB-75 cells after 72 hrs by MTT assay; settings: SNB-75, 72 h
SN12C = assay: Growth inhibition of human SN12C cells after 72 hrs by MTT assay; settings: read-out: LC50 (the source's name)
KM12 = assay: Growth inhibition of human KM12 cells after 72 hrs by MTT assay; settings: KM12, 72 h
TK-10 = assay: Growth inhibition of human TK-10 cells after 72 hrs by MTT assay; settings: TK-10, 72 h
SNB-19 = assay: Growth inhibition of human SNB-19 cells after 72 hrs by MTT assay; settings: SNB-19, 72 h
[3] = read-out: LC50 (the source's name)

Work on `C[C@@H]1CC[C@@]2(OC1)O[C@H]1C[C@H]3[C@@H]4CC[C@H]5C[C@@H](O[C@@H]6O[C@H](CO)[C@H](O[C@@H]7O[C@H](CO)[C@@H](O)[C@H](O[C@@H]8OC[C@@H](O)[C@H](O)[C@H]8O)[C@H]7O[C@@H]7O[C@H](CO)[C@@H](O)[C@H](O)[C@H]7O)[C@H](O)[C@H]6O)[C@H](O)C[C@]5(C)[C@H]4CC[C@]3(C)[C@H]1[C@@H]2C` yielded a GI50 [1] of 15 µM, a TGI [1] of 33 µM and a CC50 [1, 3] of 71 µM. It also gave a GI50 (NCI-H23) of 2 µM, a TGI (NCI-H23) of 8.7 µM and a CC50 (NCI-H23; [3]) of 36 µM. The GI50 (MDA-N) was 11 µM, the TGI (MDA-N) was 28 µM and the CC50 (MDA-N; [3]) was 74 µM. The GI50 (SK-MEL-5) was 4.1 µM, the TGI (SK-MEL-5) was 40 µM and the CC50 (SK-MEL-5; [3]) was < 100 µM. For the same molecule, the GI50 (HL-60(TB)) was 4.7 µM, the TGI (HL-60(TB)) was 48 µM and the CC50 (HL-60(TB); [3]) was < 100 µM. The CC50 (K562) was < 100 µM, the GI50 (CAKI-1) was 1.4 µM and the TGI (CAKI-1) was 18 µM. The CC50 (CAKI-1; [3]) was < 100 µM, the GI50 (MDA-MB-231) was 1.8 µM and the TGI (MDA-MB-231) was 13 µM. It also gave a CC50 (MDA-MB-231; [3]) of 87 µM, a GI50 (DU-145) of 2.4 µM and a TGI (DU-145) of 14 µM. The CC50 (DU-145; [3]) was 54 µM, the GI50 [2] was 3.9 µM and the TGI [2] was 18 µM. The CC50 [2, 3] was 81 µM, the GI50 (M14) was 16 µM and the TGI (M14) was 35 µM. It also gave a CC50 (M14; [3]) of 74 µM, a GI50 (MDA-MB-435) of 11 µM and a TGI (MDA-MB-435) of 26 µM. For the same molecule, the CC50 (MDA-MB-435; [3]) was 66 µM, the GI50 (OVCAR-3) was 2.6 µM and the TGI (OVCAR-3) was 9.1 µM. For the same molecule, the CC50 (OVCAR-3; [3]) was 35 µM, the GI50 (SK-OV-3) was 13 µM and the TGI (SK-OV-3) was 41 µM. For the same molecule, the CC50 (SK-OV-3; [3]) was < 100 µM, the GI50 (NCI-H460) was 1.3 µM and the TGI (NCI-H460) was 4.2 µM. For the same molecule, the CC50 (NCI-H460; [3]) was 16 µM, the GI50 (OVCAR-8) was 2.5 µM and the TGI (OVCAR-8) was 6.3 µM. It also gave a CC50 (OVCAR-8; [3]) of 47 µM, a GI50 (SNB-75) of 14 µM and a TGI (SNB-75) of 28 µM. The CC50 (SNB-75; [3]) was 59 µM, the CC50 (SN12C) was < 100 µM and the GI50 (KM12) was 8.9 µM. It also gave a TGI (KM12) of 23 µM, a CC50 (KM12; [3]) of 55 µM and a GI50 (TK-10) of 4.4 µM. For the same molecule, the TGI (TK-10) was < 100 µM, the CC50 (TK-10; [3]) was < 100 µM and the GI50 (SNB-19) was 12 µM. The TGI (SNB-19) was 27 µM and the CC50 (SNB-19; [3]) was 60 µM.
